Measurements published in patent publication US20250154109A1, “SODIUM CHANNEL BLOCKING COMPOUNDS, DERIVATIVES THEREOF, AND METHODS OF THEIR USE” (LATIGO BIOTHERAPEUTICS, INC, priority 2022, published 2025).
Where a name gives a salt, the structure may show the parent alone. Read-outs that look alike come from different tables or passages of the source.

Target: human Nav1.8 (Homo sapiens, UniProt Q9Y5Y9)
Assay: SyncroPatch384PE assay (automated patch clamp)
Assay type: cell-based
Details: human Nav1.8/b3 CHO cells
Experimental: Compounds were tested on recombinant human Nav1.8/b3 stably transfected CHO cells using the SyncroPatch384PE system (Nanion Technologies), an automated patch clamp device. Cells were cultured at 37° C./5% CO2 in Ham's F-12 supplemented with 10% fetal bovine serum, 100 U/mL penicillin G sodium, […] streptomycin sulfate and selection antibiotics (0.01 mg/mL Blasticidin, 0.4 mg/mL Zeocin and 0.25 mg/mL Hygromycin). On the day of the recordings, cells in culture dishes were washed twice with Hank's Balanced Salt Solution (HBSS) and treated with Accutase for approximately 20 minutes. Immediately before use in the SynchroPatch384PE using an 8-hole NPC-384 chip, the cells were washed in HBSS to remove the Accutase and re-suspended in extracellular solution. All experiments were performed at ambient temperature. Intracellular solution contained (mM): CsCl, 50; CsF, 90; MgCl2, 5; EGTA, 1; HEPES, 10; pH adjusted to 7.2 with CsOH. Extracellular solution contained (mM): NaCl, 137; KCl, 4.0; CaCl2), 3.8; MgCl2, 1; HEPES, 10; Glucose, 10; pH adjusted to 7.4 with NaOH. 100 nM tetrodotoxin (TTX) was added to the extracellular solution to block endogenous TTX-sensitive sodium currents.
Compounds were tested in quadruplicate in 0.3% DMSO and 0.03% pluronic Acid. Compounds were diluted 1:3.33 in extracellular solution to create an 8-point concentration response curve. Each plate contained a historical positive control and up to ten compounds. 300 μM tetracaine and 0.3% DMSO+0.03% pluronic acid were used as high and low controls respectively.
Whole cell patch clamp recordings were conducted according to Nanion's standard procedure for SyncroPatch384PE®. Cells were held at a holding potential of −120 mV. A depolarization step to 10 mV for 30 ms was applied (P1 measurement), followed by a hyperpolarization step to −100 mV for 100 ms. An inactivation step at −35 mV for 10 sec was applied before stepping to −100 mV for 20 ms, followed by a step to 10 mV for 30 ms (P2 measurement) and then back to −100 mV for 30 ms. Sweep interval was 15 sec. Following establishment of the whole-cell configuration in extracellular solution, cells were washed in extracellular solution containing 0.3% DMSO and 0.03% pluronic acid to stabilize the baseline current. Compounds were then applied by the SynchroPatch384 PE system into each well and the current was recorded for five minutes in extracellular solution, followed by application of tetracaine to achieve full block at the end of experiment. The potency of the compounds was assessed on two read-outs, resting state block (P1 measurement) or inactivated state block (P2 measurement) to obtain IC50 values. Values were normalized to high (tetracaine) and low (DMSO+pluronic acid) controls.
Examples 1 to 219 and Examples 225 to 236 are assayed using SyncroPatch384PE assay described above.

[1] = inactivated state block (P2 measurement), read-out: P2 IC50
[2] = resting state block (P1 measurement), read-out: P1 IC50

Chain of human Nav1.8 (Q9Y5Y9 whole entry): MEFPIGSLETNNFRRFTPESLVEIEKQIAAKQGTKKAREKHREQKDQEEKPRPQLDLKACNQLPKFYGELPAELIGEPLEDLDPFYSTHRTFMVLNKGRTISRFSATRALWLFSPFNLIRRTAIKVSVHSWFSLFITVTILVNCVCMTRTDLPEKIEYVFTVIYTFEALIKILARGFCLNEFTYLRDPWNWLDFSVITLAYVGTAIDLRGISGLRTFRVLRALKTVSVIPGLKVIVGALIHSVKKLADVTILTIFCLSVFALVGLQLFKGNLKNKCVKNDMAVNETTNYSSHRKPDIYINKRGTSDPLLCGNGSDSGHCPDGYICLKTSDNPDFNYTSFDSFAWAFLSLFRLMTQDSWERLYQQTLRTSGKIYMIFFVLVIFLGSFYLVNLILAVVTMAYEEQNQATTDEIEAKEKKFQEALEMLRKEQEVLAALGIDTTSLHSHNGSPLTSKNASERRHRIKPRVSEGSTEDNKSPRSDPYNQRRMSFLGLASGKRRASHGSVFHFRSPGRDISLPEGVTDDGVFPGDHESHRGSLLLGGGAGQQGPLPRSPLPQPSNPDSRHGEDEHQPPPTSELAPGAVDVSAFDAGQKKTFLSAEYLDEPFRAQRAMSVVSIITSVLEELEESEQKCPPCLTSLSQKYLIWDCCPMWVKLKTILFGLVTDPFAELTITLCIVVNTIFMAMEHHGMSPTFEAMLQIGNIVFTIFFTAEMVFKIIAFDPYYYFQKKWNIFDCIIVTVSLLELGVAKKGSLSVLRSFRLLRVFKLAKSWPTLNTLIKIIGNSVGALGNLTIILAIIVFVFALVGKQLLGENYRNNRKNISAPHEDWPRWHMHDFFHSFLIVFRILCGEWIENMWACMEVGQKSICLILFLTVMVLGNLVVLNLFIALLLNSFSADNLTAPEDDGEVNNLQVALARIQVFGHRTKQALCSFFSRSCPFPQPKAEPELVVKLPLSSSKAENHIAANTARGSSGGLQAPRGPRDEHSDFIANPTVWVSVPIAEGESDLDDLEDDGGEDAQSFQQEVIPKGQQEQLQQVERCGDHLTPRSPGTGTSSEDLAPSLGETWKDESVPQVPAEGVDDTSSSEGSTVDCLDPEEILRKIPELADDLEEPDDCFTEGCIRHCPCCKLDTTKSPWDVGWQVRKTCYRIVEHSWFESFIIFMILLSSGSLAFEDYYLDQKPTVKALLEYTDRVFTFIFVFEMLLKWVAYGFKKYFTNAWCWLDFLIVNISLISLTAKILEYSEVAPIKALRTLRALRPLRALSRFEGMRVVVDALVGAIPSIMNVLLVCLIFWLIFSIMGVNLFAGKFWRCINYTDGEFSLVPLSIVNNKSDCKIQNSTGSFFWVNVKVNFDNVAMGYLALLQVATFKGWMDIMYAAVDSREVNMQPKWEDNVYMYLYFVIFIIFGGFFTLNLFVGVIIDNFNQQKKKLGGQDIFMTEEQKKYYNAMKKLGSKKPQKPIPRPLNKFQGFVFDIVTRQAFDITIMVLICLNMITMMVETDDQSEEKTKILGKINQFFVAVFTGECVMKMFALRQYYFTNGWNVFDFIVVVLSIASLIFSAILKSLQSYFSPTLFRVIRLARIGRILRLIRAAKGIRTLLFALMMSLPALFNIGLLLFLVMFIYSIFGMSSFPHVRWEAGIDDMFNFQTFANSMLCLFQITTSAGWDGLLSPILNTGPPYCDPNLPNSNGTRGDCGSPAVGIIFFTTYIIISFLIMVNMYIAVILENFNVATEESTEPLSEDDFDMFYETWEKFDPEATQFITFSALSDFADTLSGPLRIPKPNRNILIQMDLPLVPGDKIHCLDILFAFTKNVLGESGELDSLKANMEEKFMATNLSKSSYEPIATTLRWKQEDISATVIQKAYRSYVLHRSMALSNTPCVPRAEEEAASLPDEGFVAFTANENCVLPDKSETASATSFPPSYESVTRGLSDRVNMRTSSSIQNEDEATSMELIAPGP

| Compound | IC50 [1] | IC50 [2] |
| --- | --- | --- |
| CNCC(=O)N=[S@](C)(=O)c1cccc(NC(=O)c2c(N3CCCC(F)(F)CC3)ncc(-c3ccc4c(c3)OCCO4)c2C)c1 [Example 48, (R)-2-(4,4-difluoroazepan-1-yl)-5-(2,3-dihydrobenzo[b][1,4]dioxin-6-yl)-4-methyl-N-(3-(S-methyl-N-(methylglycyl)sulfonimidoyl)phenyl)nicotinamide] | ≤ 5 nM | ≤ 5 nM |
| Cc1c(-c2ccc(C#N)cc2)cnc(N2CCCC(F)(F)CC2)c1C(=O)Nc1cccc([S@](C)(=N)=O)c1 [Example 49, (R)-5-(4-cyanophenyl)-2-(4,4-difluoroazepan-1-yl)-4-methyl-N-(3-(S-methylsulfonimidoyl)phenyl)nicotinamide] | ≤ 5 nM | ≤ 5 nM |
| Cc1c(-c2cnn(C)c2)cnc(N2CCCC(F)(F)CC2)c1C(=O)Nc1cccc([S@@](C)(=O)=NC(=O)C2CNC2)c1 [Example 51, (R)-N-(3-(N-(azetidine-3-carbonyl)-S-methylsulfonimidoyl)phenyl)-2-(4,4-difluoroazepan-1-yl)-4-methyl-5-(1-methyl-1H-pyrazol-4-yl)nicotinamide formate] | 5 to 50 nM | 5 to 50 nM |
| Cc1c(-c2cnn(C)c2)cnc(N2CCCC(F)(F)CC2)c1C(=O)Nc1cccc([S@@](C)(=O)=NC(=O)C(C)(C)N)c1 [Example 52, (R)-N-(3-(N-(2-amino-2-methylpropanoyl)-S-methylsulfonimidoyl)phenyl)-2-(4,4-difluoroazepan-1-yl)-4-methyl-5-(1-methyl-1H-pyrazol-4-yl)nicotinamide formate] | 5 to 50 nM | 5 to 50 nM |
| Cc1c(-c2cnn(C)c2)cnc(N2CCCC(F)(F)CC2)c1C(=O)Nc1cccc([S@@](C)(=O)=NC(=O)C2(N)CC2)c1 [Example 53, (R)-N-(3-(N-(1-aminocyclopropane-1-carbonyl)-S-methylsulfonimidoyl)phenyl)-2-(4,4-difluoroazepan-1-yl)-4-methyl-5-(1-methyl-1H-pyrazol-4-yl)nicotinamide formate] | 5 to 50 nM | 5 to 50 nM |
| Cc1c(-c2cnn(C)c2)cnc(N2CCCC(F)(F)CC2)c1C(=O)Nc1cccc([S@@](C)(=O)=NC(=O)C2COC2)c1 [Example 54, (R)-2-(4,4-difluoroazepan-1-yl)-4-methyl-5-(1-methyl-1H-pyrazol-4-yl)-N-(3-(S-methyl-N-(oxetane-3-carbonyl)sulfonimidoyl)phenyl)nicotinamide] | 5 to 50 nM | 5 to 50 nM |
| Cc1c(-c2ccc(C#N)cc2)cnc(N2CCCC(F)(F)CC2)c1C(=O)Nc1cccc([S@@](C)(=O)=NC(=O)C(C)(C)N)c1 [Example 55, (R)-N-(3-(N-(2-amino-2-methylpropanoyl)-S-methylsulfonimidoyl)phenyl)-5-(4-cyanophenyl)-2-(4,4-difluoroazepan-1-yl)-4-methylnicotinamide] | ≤ 5 nM | ≤ 5 nM |
| Cc1c(-c2ccc(F)c(F)c2)cnc(N2CCCC(F)(F)CC2)c1C(=O)Nc1cccc([S@](C)(=N)=O)c1 [Example 59, (R)-2-(4,4-difluoroazepan-1-yl)-5-(3,4-difluorophenyl)-4-methyl-N-(3-(S-methylsulfonimidoyl)phenyl)nicotinamide] | ≤ 5 nM | ≤ 5 nM |
| CNCC(=O)N=[S@](C)(=O)c1cccc(NC(=O)c2c(N3CCCC(F)(F)CC3)ncc(-c3ccc(F)c(F)c3)c2C)c1 [Example 60, (R)-2-(4,4-difluoroazepan-1-yl)-5-(3,4-difluorophenyl)-4-methyl-N-(3-(S-methyl-N-(methylglycyl)sulfonimidoyl)phenyl)nicotinamide] | ≤ 5 nM | ≤ 5 nM |
| Cc1c(-c2cc(F)cc(F)c2)cnc(N2CCCC(F)(F)CC2)c1C(=O)Nc1cccc([S@](C)(=N)=O)c1 [Example 61, (R)-2-(4,4-difluoroazepan-1-yl)-5-(3,5-difluorophenyl)-4-methyl-N-(3-(S-methylsulfonimidoyl)phenyl)nicotinamide] | ≤ 5 nM | ≤ 5 nM |
| Cc1c(C#CC2CC2)cnc(N2CCCC(F)(F)CC2)c1C(=O)Nc1cccc([S@](C)(=N)=O)c1 [Example 63, (R)-5-(cyclopropylethynyl)-2-(4,4-difluoroazepan-1-yl)-4-methyl-N-(3-(S-methylsulfonimidoyl)phenyl)nicotinamide] | ≤ 5 nM | ≤ 5 nM |
| Cc1c(-c2ccc(Cl)cc2)cnc(N2CCCC(F)(F)CC2)c1C(=O)Nc1cccc([S@](C)(=N)=O)c1 [Example 67, (R)-5-(4-chlorophenyl)-2-(4,4-difluoroazepan-1-yl)-4-methyl-N-(3-(S-methylsulfonimidoyl)phenyl)nicotinamide] | ≤ 5 nM | ≤ 5 nM |
| CNCC(=O)N=[S@](C)(=O)c1cccc(NC(=O)c2c(N3CCCC(F)(F)CC3)ncc(-c3ccc(Cl)cc3)c2C)c1 [Example 68, (R)-5-(4-chlorophenyl)-2-(4,4-difluoroazepan-1-yl)-4-methyl-N-(3-(S-methyl-N-(methylglycyl)sulfonimidoyl)phenyl)nicotinamide] | ≤ 5 nM | ≤ 5 nM |

Results, then the compound that gave them:

| IC50 [1] | IC50 [2] | Compound |
| --- | --- | --- |
| ≤ 5 nM | ≤ 5 nM | CNCC(=O)N=[S@](C)(=O)c1cccc(NC(=O)c2c(N3CCCC(F)(F)CC3)ncc(-c3ccc(C#N)cc3)c2C)c1 [Example 50, (R)-5-(4-cyanophenyl)-2-(4,4-difluoroazepan-1-yl)-4-methyl-N-(3-(S-methyl-N-(methylglycyl)sulfonimidoyl)phenyl)nicotinamide] |
| ≤ 5 nM | ≤ 5 nM | Cc1c(C#N)c(C(F)(F)F)nc(N2CCCC(F)(F)CC2)c1C(=O)Nc1cccc([S@](C)(=N)=O)c1 [Example 56, (R)-5-cyano-2-(4,4-difluoroazepan-1-yl)-4-methyl-N-(3-(S-methylsulfonimidoyl)phenyl)-6-(trifluoromethyl)nicotinamide] |
| ≤ 5 nM | ≤ 5 nM | Cc1c(C#N)c(C(F)(F)F)nc(N2CCCC(F)(F)CC2)c1C(=O)Nc1cccc([S@@](C)(=O)=NC(=O)C2CNC2)c1 [Example 57, (R)-N-(3-(N-(azetidine-3-carbonyl)-S-methylsulfonimidoyl)phenyl)-5-cyano-2-(4,4-difluoroazepan-1-yl)-4-methyl-6-(trifluoromethyl)nicotinamide formate] |
| ≤ 5 nM | ≤ 5 nM | Cc1c(C#N)c(C(F)(F)F)nc(N2CCCC(F)(F)CC2)c1C(=O)Nc1cccc([S@@](C)(=O)=NC(=O)CCN)c1 [Example 58, (R)-N-(3-(N-(3-aminopropanoyl)-S-methylsulfonimidoyl)phenyl)-5-cyano-2-(4,4-difluoroazepan-1-yl)-4-methyl-6-(trifluoromethyl)nicotinamide formate] |
| ≤ 5 nM | ≤ 5 nM | CNCC(=O)N=[S@](C)(=O)c1cccc(NC(=O)c2c(N3CCCC(F)(F)CC3)ncc(-c3cc(F)cc(F)c3)c2C)c1 [Example 62, (R)-2-(4,4-difluoroazepan-1-yl)-5-(3,5-difluorophenyl)-4-methyl-N-(3-(S-methyl-N-(methylglycyl)sulfonimidoyl)phenyl)nicotinamide] |
| ≤ 5 nM | ≤ 5 nM | CNCC(=O)N=[S@](C)(=O)c1cccc(NC(=O)c2c(N3CCCC(F)(F)CC3)ncc(C#CC3CC3)c2C)c1 [Example 64, (R)-5-(cyclopropylethynyl)-2-(4,4-difluoroazepan-1-yl)-4-methyl-N-(3-(S-methyl-N-(methylglycyl)sulfonimidoyl)phenyl)nicotinamide] |
| ≤ 5 nM | ≤ 5 nM | CNCC(=O)N=[S@](C)(=O)c1cccc(NC(=O)c2c(N3CCCC(F)(F)CC3)nc(C(F)(F)F)c(C#N)c2C)c1 [Example 65, (R)-5-cyano-2-(4,4-difluoroazepan-1-yl)-4-methyl-N-(3-(S-methyl-N-(methylglycyl)sulfonimidoyl)phenyl)-6-(trifluoromethyl)nicotinamide] |
| ≤ 5 nM | ≤ 5 nM | Cc1c(C#N)c(C(F)(F)F)nc(N2CCCC(F)(F)CC2)c1C(=O)Nc1cccc([S@@](C)(=O)=NC(=O)C2(N)CC2)c1 [Example 66, (R)-N-(3-(N-(1-aminocyclopropane-1-carbonyl)-S-methylsulfonimidoyl)phenyl)-5-cyano-2-(4,4-difluoroazepan-1-yl)-4-methyl-6-(trifluoromethyl)nicotinamide] |
